# Results from US4012284A (Societa' Farmaceutici Italia, S.p.A., priority 1962, dated 1977).
# Tested on: Sarcoma 180
# Assay: Sarcoma 180 (solid) in mice (Table VII)
# Assay type: in vivo, mouse
# Details: 2 mg/kg/day intraperitoneally, 7 days
# Experimental: At least 20 animals per lot were used.
# The checking of the activity on solid tumors has been carried out with Ehrlich adenocarcinoma and sarcoma 180 in the mouse and with Walker carcinosarcoma and the Oberling-Guerin-Guerin myeloma in the rat.
# Mice grafted with a fragment of neoplastic tissue have been treated intraperitoneally for seven consecutive days, starting from the day following the tumor implantation. The antibiotic was administered in solution at a dose of 2 mg/kg/day. At the tenth day of experiment, all the mice were killed and the tumors and spleens were removed.
structure (smiles),measurement,setting,value
COc1cccc2c1C(=O)c1c(O)c3c(c(O)c1C2=O)C[C@@](O)(C(C)=O)C[C@@H]3O[C@H]1C[C@H](N)[C@H](O)[C@H](C)O1 [F.I. 1762],spleen,,marked shrinkage of the spleen
same,tumor growth,,marked inhibition of tumor growth
same,Mortality,controls 0/10,0/10
same,"Body weight change, not [net]",controls +2.83,-3.01 grams
same,"Body weight change, gross",controls +5.05,-1.72 grams
same,"% Inhibition, spleen",tenth day,62.7%
same,"% Inhibition, tumor",tenth day,42.1%
same,"Average weight, tumor","tenth day, controls 2.225",1.289 grams
same,"Average weight, spleen","tenth day, controls 251",93.5 milligrams
